“Also recorded” adds a separate entry of the source.
How the values were obtained:
Type in all cases: in vivo, human
[1] = test system: chronic non-insertional Achilles tendinopathy; experiment: Non-insertional Achilles tendinopathy clinical trial (randomized, double blind, placebo controlled)
Description: (§1) Three clinical trials were approved by an institutional Ethics Committee. Patients with clinical diagnoses of the specified tendinopathies were recruited through newspaper advertisements and private consulting rooms. All subjects were over 18 years of age, and gave written informed consent.
(§2) In the non-insertional Achilles tendinopathy trial, there were 65 patients (84 Achilles tendons) with 40 men and 25 women enrolled in the study, having a median age of 49 years (range 24 to 77 years), and a median duration of symptoms prior to the study of 16 months (range 4 to 147 months). In the extensor tendinopathy trial, there were 86 patients (95 elbows), with 42 males and 44 females, having a median age of 46 years (range 30 to 74 years), and a median duration of symptoms of 17 months (range 3 to 232 months). In the supraspinatus tendinopathy trial, there were 53 patients (57 shoulders), with 24 males and 29 females, having a median age of 52 years (range 25 to 79 years), and a median symptom duration of 14 months (range 4 to 96).
(§3) Diagnostic criteria for patient inclusion in the respective trials were as follows. The diagnosis of chronic non-insertional Achilles tendinopathy was based on an insidious onset of Achilles tendon pain, a tender nodule localized to the region 2 to 6 centimeters from the calcaneal insertion, and an ultrasound examination that excluded a frank tendon tear. The diagnosis of chronic extensor tendinopathy at the elbow was based on an insidious onset of lateral elbow pain, tenderness localized to the lateral humeral epicondyle and extensor carpi radialis brevis tendon, pain in the lateral elbow with resisted wrist or third metacarpophalangeal joint extension, and an ultrasound examination that excluded a frank tendon tear. The diagnosis of chronic supraspinatus tendinopathy was based on positive impingement signs (internal or external rotation), pain with supraspinatus muscle testing, and magnetic resonance imaging (MRI) high signal intensity without frank tear in the supraspinatus tendon.
(§4) Patients were excluded if they had tendinopathy of less than three months duration, current pregnancy, previous surgery on the affected limb or tendon, dislocation of the ipsilateral limb joints, distal neurological signs, a local corticosteroid injection in the previous three months, the current use of nitrate medications or phosphodiesterase inhibitors such as Viagra™, a family history of arthritis other than osteoarthritis, or extra-articular features of seronegative arthropathies. Generally, every participating patient could be considered to have persistent active tendinopathy.
(§5) The patients were randomly allocated into two groups. […] The active and placebo patches were indistinguishable from one another. The randomization was controlled by the senior pharmacist at the institution who also supervised the packaging of transdermal patches and their distribution to patients. Both the patients and the clinical examiner were blinded as to which group the patients were in, i.e. double-blind.
(§6) The transdermal patches were intact when distributed, and patients were required to cut the patches into quarters prior to application. Patients were also given a supply of paracetamol tablets (500 mg), and were instructed to use them exclusively for any headaches experienced.
(§7) Patients were instructed in the application of the patches at their initial visit. They were informed that the dosing regimen was one quarter of a transdermal patch to be applied daily to the skin area closest to the affected tendon. The patches were to be left in situ for 24 hours and then replaced with a new quarter patch. […] Patients were instructed to rotate the patch application site around this point with each new patch application for the six-month study duration in an effort to minimize application site irritation.
(§8) At the initial clinical assessment, all patients were instructed in the performance of a tendon specific rehabilitation program. […]

chronic tennis elbow = experiment: Example 5: patient case, chronic tennis elbow; details: patch 60 mcg/hr for 2 weeks
Description: A patient suffering from chronic tennis elbow applies a transdermal patch delivering 60 mcg/hr nitroglycerin for a period of 2 weeks.

[2] = test system: chronic supraspinatus tendinopathy
Description: as §1, §2, §3, §4, §5, §6, §7, §8

[3] = test system: de Quervain's tendinopathy in the right extensor tendons of the thumb; experiment: Example 4: patient case, de Quervain's tendinopathy
Description: A patient suffering de Quervain's tendinopathy in the right extensor tendons of the thumb applies a transdermal patch delivering 10 mcg/hr nitroglycerin for a period of 24 weeks. This condition can be caused due to the arrival of a new baby and the consequent carrying as an unusual daily activity, and as is common, physical therapy and intermittent use of a wrist splint may provide little relief of symptoms.

[4] = test system: persistent active tendinopathy of the left Achilles tendon; experiment: Example 3: patient case, persistent active tendinopathy of the left Achilles tendon; details: patch 30 mcg/hr for 8 weeks
Description: A patient suffering from persistent active tendinopathy of the left Achilles tendon applies a transdermal patch delivering 30 mcg/hr nitroglycerin for a period of 8 weeks.

[5] = week 24, more patients asymptomatic with activities of daily living than placebo, 1.25 mg/24 h patch + rehabilitation

SMILES: O=[N+]([O-])OCC(CO[N+](=O)[O-])O[N+](=O)[O-] [glyceryl trinitrate, 1,2,3-propanetriol trinitrate]
- Headache (Days) Average ([1]; GTN group): GTN 5 Days
- Headache (Days) Median ([1]; GTN group): GTN 4 Days
- Headache (Days) Total ([1]; GTN group): 85 days
- Headache: percentage of patients ([1]; GTN group): 53%
- No Side Effects ([1]; GTN group): GTN 44%
- Other Noted Side-Effects: Increase Tinnitus ([1]; GTN group): Tinnitus (3%)
- Tenderness Outcomes: Achilles tenderness vs placebo ([1]; Week 12 (p=0.02)): significant decreases; also recorded: significantly less; also recorded: Decreased Week
- Pain Outcomes: Achilles tendon pain with activity vs placebo ([1]; Week 12 (p=0.02) / 24 (p=0.03)): significant decrease; also recorded: Decreased
- Pain Outcomes: night pain vs placebo ([1]; Week 12 (p=0.04)): significant decrease; also recorded: Decreased
- Functional Outcomes Measures: Hop Test vs placebo ([1]; Week 24): Increased Hop
- Force Outcomes: ORI-ASTS mean plantarflexion total work vs placebo ([1]; Week 24 (p=0.04), from baseline levels): significant increase; also recorded: Increased Mean
- Other Noted Side-Effects: Rash ([1]; application site, GTN group): Rash 16%,
- number needed to treat (NNT) ([1]; excellent result at 24 weeks, Chi square p=0.001): 3.4
- total amount of paracetamol required for headache treatment vs placebo ([1]; p=0.001): significant increases; also recorded: significant between-group differences
- Discontinuations: Headache ([1]; patients, all GTN group): Headache 1
- Discontinuations: Rash ([1]; patients, all GTN group): Rash,
- Paracetamol Average ([1]; used for headache, GTN group): GTN 14 tablets
- Paracetamol Median ([1]; used for headache, GTN group): GTN 10 tablets
- Paracetamol Total ([1]; used for headache, GTN group): GTN 237 tablets
- pain scores after the 10 hop test vs placebo ([1]; week 24 (p=0.005)): significant decrease
- Improved Patient Outcomes [1, 5]: 29%
- patients with excellent improvement (asymptomatic with activities of daily living), patient reported ([1]; week 24, placebo 49%): 78%
- continuation of the reduction of symptoms after discontinuance (chronic tennis elbow): at least two weeks
- Headache (Days) Average ([2]; GTN group): GTN 6 Days
- Headache (Days) Median ([2]; GTN group): GTN 4 Days
- Headache (Days) Total ([2]; GTN group): GTN 127 Days
- Headache: percentage of patients ([2]; GTN group): (76%)
- No Side Effects ([2]; GTN group): GTN 30%
- Tenderness Outcomes vs placebo ([2]; anteroinferior subacromial tenderness): no significant differences
- Other Noted Side-Effects: Rash ([2]; application site, GTN group): Rash 8%
- number needed to treat (NNT) ([2]; excellent result at 24 weeks, Chi square p=0.007): 4.5
- reported rate of headache and average number of headaches experienced vs placebo ([2]; human, in vivo): significant between-group differences
- number of days affected by headache vs placebo ([2]; p=0.001): significant increase
- Discontinuations: Headache ([2]; patients, all GTN group): Headache 2
- Paracetamol Average ([2]; used for headache, GTN group): GTN 7 tablets
- Paracetamol Median ([2]; used for headache, GTN group): GTN 2 tablets
- Paracetamol Total ([2]; used for headache, GTN group): GTN 138 tablets
- Improved Patient Outcomes [2, 5]: 22%
- patients with excellent improvement, patient reported ([2]; week 24, placebo 24%): 46%
- pain after administration is stopped ([3]; 2 years after stop, negative Finklestein test): continue to have reduced pain
- pain during administration ([3]; patch 10 mcg/hr for 24 weeks, person): decrease in pain within one day
- pain and tenderness of the ankle after discontinuation ([4]; eight weeks following discontinuation): continue to feel decreased pain and tenderness of the ankle
- pain and tenderness of the ankle during therapy ([4]; person): reduction of pain and tenderness of the ankle by day 2 of therapy
